ChEMBL document CHEMBL3853262 (Medchemcomm, 2016)
The source made the active and inactive calls. No cut-off for these calls is given here.

Tests used:
THP-1 [1] = assay: Proapoptotic activity in human THP1 cells assessed as late apoptotic cells at 25 uM after 5 hrs by annexin V/propidium iodide staining-based capillary cytometric method relative to control; format: functional
THP-1 [2] = assay: Induction of apoptosis in human THP1 cells assessed as activation of caspase 3/7 by measuring DNA fragmentation at 25 uM after 3 hrs by 7-AAD staining-based capillary cytometric method; format: functional, cell-based
THP-1 [3] = assay: Proapoptotic activity in human THP1 cells assessed as late apoptotic cells at 25 uM after 1 hr by annexin V/propidium iodide staining-based capillary cytometric method relative to control; format: functional
NTERA-2-cl-D1 [4] = assay: Induction of apoptosis in human NT2/D1 cells assessed as necrotic cells at 25 uM after 4 hrs by annexin V/propidium iodide staining-based capillary cytometric method (reference value: 0.10%); format: functional
NTERA-2-cl-D1 [5] = assay: Proapoptotic activity in human NT2/D1 cells assessed as necrotic cells at 25 uM after 5 hrs by annexin V/propidium iodide staining-based capillary cytometric method relative to control; format: functional
THP-1 [6] = assay: Proapoptotic activity in human THP1 cells assessed as early apoptotic cells at 25 uM after 3 hrs by annexin V/propidium iodide staining-based capillary cytometric method relative to control; format: functional
THP-1 [7] = assay: Induction of apoptosis in human THP1 cells assessed as […] cells at 25 uM after 4 hrs in presence of pan caspase inhibitor Z-VAD-fmk by annexin V/propidium iodide staining-based capillary cytometric method (reference value: 96.40%); format: functional
NTERA-2-cl-D1 [8] = assay: Proapoptotic activity in human NT2/D1 cells assessed as viable cells at 25 uM after 5 hrs by annexin V/propidium iodide staining-based capillary cytometric method relative to control; format: functional; details: NTERA-2-cl-D1, 5 h, read-out: Activity
NTERA-2-cl-D1 [9] = assay: Proapoptotic activity in human NT2/D1 cells assessed as early apoptotic cells at 25 uM after 1 hr by annexin V/propidium iodide staining-based capillary cytometric method relative to control; format: functional
THP-1 [10] = assay: Proapoptotic activity in human THP1 cells assessed as late apoptotic cells at 25 uM after 7 hrs by annexin V/propidium iodide staining-based capillary cytometric method relative to control; format: functional
THP-1 [11] = assay: Proapoptotic activity in human THP1 cells assessed as early apoptotic cells at 25 uM after 7 hrs by annexin V/propidium iodide staining-based capillary cytometric method relative to control; format: functional
THP-1 [12] = assay: Induction of apoptosis in human THP1 cells assessed as early apoptotic cells at 25 uM after 4 hrs in presence of pan caspase inhibitor Z-VAD-fmk by annexin V/propidium iodide staining-based capillary cytometric method (reference value: 3.22%); format: functional
THP-1 [13] = assay: Induction of apoptosis in human THP1 cells assessed as late apoptotic cells at 25 uM after 4 hrs by annexin V/propidium iodide staining-based capillary cytometric method (reference value: 0.34%); format: functional
THP-1 [14] = assay: Induction of apoptosis in human THP1 cells assessed as activation of caspase 8/9 at 25 uM by 7-AAD staining-based capillary cytometric method; format: functional, cell-based
NTERA-2-cl-D1 [15] = assay: Proapoptotic activity in human NT2/D1 cells assessed as viable cells at 25 uM after 1 hr by annexin V/propidium iodide staining-based capillary cytometric method relative to control; format: functional; details: NTERA-2-cl-D1, 1 h, read-out: Activity
NTERA-2-cl-D1 [16] = assay: Induction of apoptosis in human NT2/D1 cells assessed as activation of caspase 8/9 at 25 uM by 7-AAD staining-based capillary cytometric method; format: functional, cell-based
NTERA-2-cl-D1 [17] = assay: Induction of apoptosis in human NT2/D1 cells assessed as late apoptotic cells at 25 uM after 4 hrs by annexin V/propidium iodide staining-based capillary cytometric method (reference value: 0.70%); format: functional
THP-1 [18] = assay: Induction of apoptosis in human THP1 cells assessed as early apoptotic cells at 25 uM after 4 hrs by annexin V/propidium iodide staining-based capillary cytometric method (reference value: 3.22%); format: functional
ASPC1 = assay: Proapoptotic activity in human AsPC1 cells by annexin V-FITC/propidium iodide staining-based capillary cytometric method; format: functional, cell-based
THP-1 [19] = assay: Proapoptotic activity in human THP1 cells assessed as late apoptotic cells at 25 uM after 3 hrs by annexin V/propidium iodide staining-based capillary cytometric method relative to control; format: functional
NTERA-2-cl-D1 [20] = assay: Proapoptotic activity in human NT2/D1 cells assessed as early apoptotic cells at 25 uM after 3 hrs by annexin V/propidium iodide staining-based capillary cytometric method relative to control; format: functional
NTERA-2-cl-D1 [21] = assay: Proapoptotic activity in human NT2/D1 cells assessed as early apoptotic cells at 25 uM after 5 hrs by annexin V/propidium iodide staining-based capillary cytometric method relative to control; format: functional
NTERA-2-cl-D1 [22] = assay: Induction of apoptosis in human NT2/D1 cells assessed as early apoptotic cells at 25 uM after 4 hrs in presence of pan caspase inhibitor Z-VAD-fmk by annexin V/propidium iodide staining-based capillary cytometric method (reference value: 3.40%); format: functional
THP-1 [23] = assay: Proapoptotic activity in human THP1 cells assessed as early apoptotic cells at 25 uM after 1 hr by annexin V/propidium iodide staining-based capillary cytometric method relative to control; format: functional
THP-1 [24] = assay: Proapoptotic activity in human THP1 cells assessed as necrotic cells at 25 uM after 3 hrs by annexin V/propidium iodide staining-based capillary cytometric method relative to control; format: functional
NTERA-2-cl-D1 [25] = assay: Proapoptotic activity in human NT2/D1 cells assessed as viable cells at 25 uM after 3 hrs by annexin V/propidium iodide staining-based capillary cytometric method relative to control; format: functional; details: NTERA-2-cl-D1, 3 h, read-out: Activity
THP-1 [26] = assay: Induction of apoptosis in human THP1 cells assessed as late necrotic cells at 25 uM after 4 hrs by annexin V/propidium iodide staining-based capillary cytometric method (reference value: 0.04%); format: functional
NTERA-2-cl-D1 [27] = assay: Induction of apoptosis in human NT2/D1 cells assessed as activation of caspase 3/7 by measuring DNA fragmentation at 25 uM after 3 hrs by 7-AAD staining-based capillary cytometric method; format: functional, cell-based
THP-1 [28] = assay: Proapoptotic activity in human THP1 cells assessed as viable cells at 25 uM after 7 hrs by annexin V/propidium iodide staining-based capillary cytometric method relative to control; format: functional; details: THP-1, 7 h, read-out: Activity

SMILES: CNc1nc(-c2cccc(NC(=O)c3cc4ccccc4[nH]3)c2)c[nH]1.Cl
- Activity (THP-1 [1]): 38.05%
- Activity (THP-1 [2]): Active
- Activity (THP-1 [3]): 2.66%
- Activity (NTERA-2-cl-D1 [4]): 0.3%
- Activity (NTERA-2-cl-D1 [5]): 0.6%
- Activity (THP-1 [6]): 5.81%
- Activity (THP-1 [7]): 18.04%
- viability at 25 µM (NTERA-2-cl-D1 [8]): 47%
- Activity (NTERA-2-cl-D1 [9]): 8.6%
- Activity (THP-1 [10]): 45.9%
- Activity (THP-1 [11]): 36.14%
- Activity (THP-1 [12]): 64.66%
- Activity (THP-1 [13]): 89.44%
- Activity (THP-1 [14]): Active
- viability at 25 µM (NTERA-2-cl-D1 [15]): 87.7%
- Activity (NTERA-2-cl-D1 [16]): Active
- Activity (NTERA-2-cl-D1 [17]): 5.16%
- Activity (THP-1 [18]): 4.96%
- EC50 (ASPC1): 32 µM
- Activity (THP-1 [19]): 16.53%
- Activity (NTERA-2-cl-D1 [20]): 22.77%
- Activity (NTERA-2-cl-D1 [21]): 46.36%
- Activity (NTERA-2-cl-D1 [22]): 8.15%
- Activity (THP-1 [23]): 1.45%
- Activity (THP-1 [24]): 0.3%
- viability at 25 µM (NTERA-2-cl-D1 [25]): 73.9%
- Activity (THP-1 [26]): 0.26%
- Activity (NTERA-2-cl-D1 [27]): Active
- viability at 25 µM (THP-1 [28]): 17.8%
